Columns and labels:
[1] = molecular target: T1, human recombinant serotonin (5-Hydroxytryptamine) 5-HT6 receptor (Homo sapiens, UniProt P50406); assay: Serotonin 5-HT6 radioligand binding ([3H]LSD); design: Inhibition of ligand binding, Ser. 5-HT6: concentration or dose not given beside the values; conditions: percent inhibition of specific binding
T1 construct: expressed in transfected cells; host or cells: human HeLa cells
Excerpt: Receptor proteins were filtered and washed, the filters were then counted to determine [3H]LSD specifically bound. […] Biochemical assay results are presented as the percent inhibition of specific binding in Table 6.

[2] = molecular target: T2, human recombinant dopamine D2L receptor (Homo sapiens, UniProt P14416); assay: Dopamine D2L radioligand binding ([3H]Spiperone); conditions: percent inhibition of specific binding
T2 construct: expressed in transfected cells; host or cells: CHO cells
T2 sequence (P14416 whole entry): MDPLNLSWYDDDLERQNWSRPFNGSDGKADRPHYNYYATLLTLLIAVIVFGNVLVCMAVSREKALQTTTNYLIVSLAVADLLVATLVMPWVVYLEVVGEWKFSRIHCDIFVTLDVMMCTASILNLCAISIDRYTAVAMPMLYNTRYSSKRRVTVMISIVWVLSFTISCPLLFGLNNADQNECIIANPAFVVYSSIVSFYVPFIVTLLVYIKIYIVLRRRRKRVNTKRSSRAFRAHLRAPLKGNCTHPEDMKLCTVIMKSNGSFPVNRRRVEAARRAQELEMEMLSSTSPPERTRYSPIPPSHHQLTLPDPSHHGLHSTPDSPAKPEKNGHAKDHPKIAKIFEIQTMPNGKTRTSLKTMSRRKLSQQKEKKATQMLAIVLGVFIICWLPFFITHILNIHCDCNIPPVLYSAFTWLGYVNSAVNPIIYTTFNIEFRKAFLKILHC
Procedure: Non-specific binding was estimated in the presence of 10 μM Haloperidol. Receptor proteins were filtered and washed, the filters were then counted to determine [^3H]Spiperone specifically bound. […] Biochemical assay results are presented as the percent inhibition of specific binding in Table 6.

[3] = molecular target: T3, human recombinant histamine H2 receptor (Homo sapiens, UniProt P25021); assay: Histamine H2 radioligand binding ([125I]Aminopotentidine); conditions: percent inhibition of specific binding; screened at 1 μM; read-out: Inhibition of ligand binding, Hist. H2
T3 construct: expressed in transfected cells; host or cells: CHO-K1 cells
T3 sequence (P25021 whole entry): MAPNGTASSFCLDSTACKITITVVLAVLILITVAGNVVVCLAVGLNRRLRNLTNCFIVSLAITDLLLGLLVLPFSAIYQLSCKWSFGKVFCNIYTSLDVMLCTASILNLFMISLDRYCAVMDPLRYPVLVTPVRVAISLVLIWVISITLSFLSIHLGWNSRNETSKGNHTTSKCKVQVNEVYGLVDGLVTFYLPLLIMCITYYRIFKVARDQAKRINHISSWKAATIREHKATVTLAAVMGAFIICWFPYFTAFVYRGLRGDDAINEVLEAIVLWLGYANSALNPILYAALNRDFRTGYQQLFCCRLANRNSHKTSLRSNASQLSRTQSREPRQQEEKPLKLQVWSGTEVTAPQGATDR
Outline: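 This radioligand binding assay measured displacement of [125I]Aminopotentidine from recombinant human histamine H2 receptors. Compounds were dissolved in 1% DMSO vehicle. Specific binding was calculated by subtracting non-specific binding, defined using 3 μM Tiotidine, and activity was reported as percentage inhibition of that specific binding.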

[4] = molecular target: T4, human recombinant serotonin (5-Hydroxytryptamine) 5-HT2C receptor (Homo sapiens, UniProt P28335); assay: Serotonin 5-HT2C radioligand binding ([3H]Mesulergine); design: Inhibition of ligand binding, Ser. 5-HT2C: concentration or dose not given beside the values; conditions: percent inhibition of specific binding
T4 construct: expressed in transfected cells; host or cells: CHO-K1 cells
T4 sequence (P28335 33-458): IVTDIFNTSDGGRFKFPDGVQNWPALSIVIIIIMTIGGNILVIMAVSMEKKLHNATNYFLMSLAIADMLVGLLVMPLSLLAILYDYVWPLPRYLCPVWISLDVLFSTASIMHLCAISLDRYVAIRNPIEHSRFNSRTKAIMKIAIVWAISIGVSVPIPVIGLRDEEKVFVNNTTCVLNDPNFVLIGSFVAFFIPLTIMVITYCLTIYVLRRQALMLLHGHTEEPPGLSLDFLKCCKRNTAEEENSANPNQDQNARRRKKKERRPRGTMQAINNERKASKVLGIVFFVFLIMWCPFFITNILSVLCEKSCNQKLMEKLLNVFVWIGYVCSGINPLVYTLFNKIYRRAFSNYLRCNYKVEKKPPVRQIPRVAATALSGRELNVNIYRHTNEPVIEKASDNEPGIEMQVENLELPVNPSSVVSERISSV
Procedure: (§1) Compounds of the invention were incubated with 1 nM [^3H]Mesulergine for 60 minutes at 25° C. Non-specific binding was estimated in the presence of 1 μM Mianserin. Receptor proteins were filtered and washed, the filters were then counted to determine [^3H]Mesulergine specifically bound. […] Biochemical assay results are presented as the percent inhibition of specific binding in Table 6.

[5] = molecular target: T5, human recombinant adrenergic α2B receptor (Homo sapiens, UniProt P18089); assay: Adrenergic α2B radioligand binding ([3H]Rauwolscine); design: Inhibition of ligand binding, Adren. alpha2B: concentration or dose not given beside the values; conditions: percent inhibition of specific binding
T5 construct: expressed in transfected cells; host or cells: CHO-K1 cells
T5 sequence (P18089 1-450): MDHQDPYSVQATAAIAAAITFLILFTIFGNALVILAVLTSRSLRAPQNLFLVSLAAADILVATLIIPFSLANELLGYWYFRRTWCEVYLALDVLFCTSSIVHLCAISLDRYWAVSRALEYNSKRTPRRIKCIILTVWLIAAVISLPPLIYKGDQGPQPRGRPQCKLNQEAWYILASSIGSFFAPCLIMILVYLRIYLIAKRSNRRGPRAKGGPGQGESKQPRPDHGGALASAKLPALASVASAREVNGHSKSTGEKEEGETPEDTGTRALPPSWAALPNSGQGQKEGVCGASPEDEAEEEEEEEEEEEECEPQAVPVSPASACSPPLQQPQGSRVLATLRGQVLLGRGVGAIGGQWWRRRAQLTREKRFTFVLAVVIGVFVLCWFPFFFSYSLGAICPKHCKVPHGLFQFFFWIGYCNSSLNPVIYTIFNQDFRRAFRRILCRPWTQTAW
Outline: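 Incubation ran 60 minutes at 25 °C in modified Tris-HCl buffer (50 mM, pH 7.4, 12.5 mM MgCl2, 1 mM EDTA, 0.2% BSA) using CHO-K1-expressed human receptor.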

[6] = molecular target: T6, human recombinant serotonin (5-Hydroxytryptamine) 5-HT2A receptor (Homo sapiens, UniProt P28223); assay: Serotonin 5-HT2A radioligand binding ([3H]Ketanserin); conditions: percent inhibition of specific binding
T6 construct: expressed in transfected cells; host or cells: CHO-K1 cells
T6 sequence (P28223 whole entry): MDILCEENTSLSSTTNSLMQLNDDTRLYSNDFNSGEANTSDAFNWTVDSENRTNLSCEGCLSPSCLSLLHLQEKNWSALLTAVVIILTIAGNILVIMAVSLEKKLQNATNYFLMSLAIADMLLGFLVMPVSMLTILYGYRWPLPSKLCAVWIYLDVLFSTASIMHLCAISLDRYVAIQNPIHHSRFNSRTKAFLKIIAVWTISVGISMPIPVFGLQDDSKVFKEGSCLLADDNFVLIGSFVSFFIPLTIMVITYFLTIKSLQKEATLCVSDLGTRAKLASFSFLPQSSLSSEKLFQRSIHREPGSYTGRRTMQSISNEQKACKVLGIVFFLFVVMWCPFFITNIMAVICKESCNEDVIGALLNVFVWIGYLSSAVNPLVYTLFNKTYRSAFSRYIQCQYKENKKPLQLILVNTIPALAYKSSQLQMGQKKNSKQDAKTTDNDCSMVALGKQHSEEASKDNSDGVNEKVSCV
Procedure: as §1, with “with 0.5” for “with 1”, “nM [^3H]Ketanserin” for “nM [^3H]Mesulergine”, “determine [^3H]Ketanserin” for “determine [^3H]Mesulergine”

[7] = molecular target: T7, Serotonin (5-Hydroxytryptamine) 5-HT7 (Homo sapiens, UniProt P34969); assay: Serotonin 5-HT7 radioligand binding ([3H]LSD); design: Inhibition of ligand binding, Ser. 5-HT7: concentration or dose not given beside the values; conditions: percent inhibition of specific binding
T7 construct: expressed in transfected cells; host or cells: CHO cells
T7 sequence (P34969 whole entry): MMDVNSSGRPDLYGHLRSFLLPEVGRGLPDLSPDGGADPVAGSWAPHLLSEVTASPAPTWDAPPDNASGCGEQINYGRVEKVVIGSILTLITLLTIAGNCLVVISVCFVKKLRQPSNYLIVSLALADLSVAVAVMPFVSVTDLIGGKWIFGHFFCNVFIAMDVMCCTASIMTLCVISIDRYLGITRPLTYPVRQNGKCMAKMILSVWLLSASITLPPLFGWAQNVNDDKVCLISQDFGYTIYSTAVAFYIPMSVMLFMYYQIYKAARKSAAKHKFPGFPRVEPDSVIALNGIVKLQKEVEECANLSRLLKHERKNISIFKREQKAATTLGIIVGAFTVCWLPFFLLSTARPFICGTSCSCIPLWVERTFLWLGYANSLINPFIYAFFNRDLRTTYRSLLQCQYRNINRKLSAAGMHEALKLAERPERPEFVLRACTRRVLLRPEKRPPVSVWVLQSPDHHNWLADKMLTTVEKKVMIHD
Procedure: Lysergic acid diethylamide (LSD) for 2 hours at 25° C. […] Receptor proteins were filtered and washed, the filters were then counted to determine [^3H]LSD specifically bound. […] Biochemical assay results are presented as the percent inhibition of specific binding in Table 6.

T1 sequence (P50406 whole entry): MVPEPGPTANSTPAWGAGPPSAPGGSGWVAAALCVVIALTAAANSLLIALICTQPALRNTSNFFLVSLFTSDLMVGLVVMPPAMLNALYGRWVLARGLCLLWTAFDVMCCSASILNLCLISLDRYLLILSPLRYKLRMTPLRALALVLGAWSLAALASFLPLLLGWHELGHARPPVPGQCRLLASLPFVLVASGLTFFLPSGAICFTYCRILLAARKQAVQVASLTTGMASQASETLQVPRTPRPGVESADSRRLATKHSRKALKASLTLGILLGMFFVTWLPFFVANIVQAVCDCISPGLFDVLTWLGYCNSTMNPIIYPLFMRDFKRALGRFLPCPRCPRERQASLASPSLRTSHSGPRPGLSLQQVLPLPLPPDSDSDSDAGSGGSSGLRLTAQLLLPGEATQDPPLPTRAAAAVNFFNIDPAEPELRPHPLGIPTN

SMILES | Inhibition of ligand binding, Ser. 5-HT6 [1] | Inhibition of ligand binding, Dop. D2L [2] | inhibition at 1 µM [3] | Inhibition of ligand binding, Ser. 5-HT2C [4] | Inhibition of ligand binding, Adren. alpha2B [5] | Inhibition of ligand binding, Ser. 5-HT2A [6] | Inhibition of ligand binding, Ser. 5-HT7 [7]
Cc1ccc2c(c1)c1c(n2CCc2ccc(C(C)C)nc2)CCN(C)C1 [Compound 360, 5-[2-(6-Isopropyl-pyridin-3-yl)-ethyl]-2,8-dimethyl-2,3,4,5-tetrahydro-1H-pyrido[4,3-b]indole] | 91% | 37% | 75% | 83% | 115% | 97% | 91%
CC(C)c1ccc(CCn2c3c(c4cc(Cl)ccc42)CN(C)CC3)cn1 [Compound 372, 8-Chloro-5-[2-(6-isopropyl-pyridin-3-yl)-ethyl]-2-methyl-2,3,4,5-tetrahydro-1H-pyrido[4,3-b]indole] | 88% | 44% | 82% | 77% | 110% | 96% | 94%
Cc1ccc2c(c1)c1c(n2CC(=O)N2CCCCC2)CCN(C)C1 [Compound 395, 2-(1,2,3,4-tetrahydro-2,8-dimethylpyrido[4,3-b]indol-5-yl)-1-(piperidin-1-yl)ethanone] | 0% | 2% | 4% | 50% | 2% | 16% | 24%
CCCc1ccc(CCn2c3c(c4cc(C)ccc42)CN(C)CC3)cn1 [Compound 452, 2,8-Dimethyl-5-[2-(6-propyl-pyridin-3-yl)-ethyl]-2,3,4,5-tetrahydro-1H-pyrido[4,3-b]indole] | 93% | 52% | 92% | 93% | 104% | 97% | 96%
CC(Cn1c2c(c3ccccc31)CN(C)CC2)c1ccc(F)cc1 (centres unmarked) [Compound 455] | 99% | 88% | 91% | 97% | 120% | 99% | 98%

— patent publication US9096591B2, “Tetracyclic compounds” (Medivation Technologies, Inc., priority 2007, dated 2015)
